Results taken from ChEMBL document CHEMBL1154973 (Bioorg Med Chem Lett, 2010).

Legend:
[1] = molecular target: T1, Acetylcholinesterase (Rattus norvegicus, UniProt P37136); experiment: Inhibition of rat brain AChE by Ellman's method
T1 sequence (P37136 whole entry): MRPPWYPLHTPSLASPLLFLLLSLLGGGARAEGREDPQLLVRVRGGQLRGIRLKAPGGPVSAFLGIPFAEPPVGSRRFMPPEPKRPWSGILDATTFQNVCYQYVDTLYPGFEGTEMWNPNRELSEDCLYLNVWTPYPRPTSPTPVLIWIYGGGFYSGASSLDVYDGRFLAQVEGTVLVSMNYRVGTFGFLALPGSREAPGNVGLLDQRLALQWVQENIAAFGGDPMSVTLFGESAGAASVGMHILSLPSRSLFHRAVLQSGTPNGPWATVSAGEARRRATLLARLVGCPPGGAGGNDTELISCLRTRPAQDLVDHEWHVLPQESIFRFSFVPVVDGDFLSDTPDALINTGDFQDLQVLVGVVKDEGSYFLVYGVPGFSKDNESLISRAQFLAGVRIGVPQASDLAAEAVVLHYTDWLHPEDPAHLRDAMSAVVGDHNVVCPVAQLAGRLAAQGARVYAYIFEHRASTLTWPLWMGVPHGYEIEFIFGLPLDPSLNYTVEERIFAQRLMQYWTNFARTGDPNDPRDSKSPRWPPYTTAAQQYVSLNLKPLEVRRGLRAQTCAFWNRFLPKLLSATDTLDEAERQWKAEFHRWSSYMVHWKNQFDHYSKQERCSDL

[2] = molecular target: Butyrylcholinesterase (Rattus norvegicus, UniProt Q9JKC1); experiment: Inhibition of rat plasma BChE by Ellman's method; assay type: cell-free
Chain of Butyrylcholinesterase (Q9JKC1 whole entry): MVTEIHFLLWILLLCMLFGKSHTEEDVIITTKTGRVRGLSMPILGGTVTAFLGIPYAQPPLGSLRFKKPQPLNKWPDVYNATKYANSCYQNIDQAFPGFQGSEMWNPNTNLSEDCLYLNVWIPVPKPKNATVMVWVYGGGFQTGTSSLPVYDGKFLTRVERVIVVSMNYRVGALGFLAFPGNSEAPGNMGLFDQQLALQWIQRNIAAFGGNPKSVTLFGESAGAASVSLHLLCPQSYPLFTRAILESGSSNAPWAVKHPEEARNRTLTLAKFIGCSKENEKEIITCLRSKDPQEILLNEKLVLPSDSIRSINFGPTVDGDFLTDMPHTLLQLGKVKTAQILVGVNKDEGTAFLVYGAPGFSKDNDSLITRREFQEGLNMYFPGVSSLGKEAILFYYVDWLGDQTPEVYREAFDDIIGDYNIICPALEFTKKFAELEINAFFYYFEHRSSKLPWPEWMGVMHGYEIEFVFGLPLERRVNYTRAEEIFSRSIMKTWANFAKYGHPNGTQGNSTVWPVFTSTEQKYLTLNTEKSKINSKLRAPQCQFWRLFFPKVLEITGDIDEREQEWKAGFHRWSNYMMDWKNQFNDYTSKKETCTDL

[3] = molecular target: T2, Acetylcholinesterase and butyrylcholinesterase (AChE and BChE) (Rattus norvegicus) (UniProt P37136+Q9JKC1); experiment: Selectivity ratio of IC50 for rat plasma BChE to IC50 for rat brain AChE; assay type: cell-free
T2 sequence (Q9JKC1 1-597, one chain of several): as the sequence (Q9JKC1 whole entry) above

[4] = molecular target: T2, Acetylcholinesterase and butyrylcholinesterase (AChE and BChE) (Rattus norvegicus); experiment: Selectivity ratio of IC50 for rat brain AChE to IC50 rat plasma BChE; assay type: cell-free

With `CC(C)c1cccc(C(C)C)c1NC(=O)Oc1ccc2c(c1)[C@]1(C)CCN(C)[C@@H]1N2C` as the molecule, how does the IC50 [1] read?
The IC50 was 735 nM.

And the IC50 [2]?
The IC50 was 830 nM.

How did the IC50 [1] turn out when `CN1CC[C@@]2(C)c3cc(OC(=O)Nc4ccccc4Br)ccc3N(C)[C@@H]12` was run?
Its IC50 is 66.5 nM.

And the IC50 [2]?
The IC50 was 39.6 nM.

Which results are given for `CN1CC[C@@]2(C)c3cc(OC(=O)Nc4cccc(Cl)c4Cl)ccc3N(C)[C@@H]12`?
IC50 [1]: 66.2 nM; IC50 [2]: 517 nM; Ratio IC50 [3]: 8

Which results are given for `CN1CC[C@@]2(C)c3cc(OC(=O)Nc4cccc(C#N)c4)ccc3N(C)[C@@H]12`?
IC50 [1]: 442 nM; IC50 [2]: 1020 nM; Ratio IC50 [3]: 4

For `CN1CC[C@@]2(C)c3cc(OC(=O)Nc4ccc(Br)cc4)ccc3N(C)[C@@H]12`, which IC50 [1] is on record?
Its IC50 is 168 nM.

What about the IC50 [2] of the same molecule?
The IC50 was 14.9 nM.

And the Ratio IC50 [4]?
The Ratio IC50 was 7.

What does the source list for `COc1ccc(NC(=O)Oc2ccc3c(c2)[C@]2(C)CCN(C)[C@@H]2N3C)cc1`?
IC50 [1]: 29.9 nM; IC50 [2]: 5.8 nM; Ratio IC50 [4]: 5

How did the IC50 [2] turn out when `CNC(=O)Oc1ccc2c(c1)[C@]1(C)CCN(C)[C@@H]1N2C` [PHYSOSTIGMINE] was run?
Its IC50 is 7.6 nM.

With `CN1CC[C@@]2(C)c3cc(OC(=O)NC4CCCCC4)ccc3N(C)[C@@H]12` as the molecule, how does the IC50 [1] read?
Its IC50 is 8.5 nM.

What about the IC50 [2] of the same molecule?
The IC50 was 1400 nM.

What about the Ratio IC50 [3] of the same molecule?
Its Ratio IC50 is 174.

Which IC50 [1] does the source give for `Cc1c(Cl)cccc1NC(=O)Oc1ccc2c(c1)[C@]1(C)CCN(C)[C@@H]1N2C` here?
The IC50 was 6.4 nM.

What about the IC50 [2] of the same molecule?
Its IC50 is 113 nM.

And the Ratio IC50 [3]?
The Ratio IC50 was 18.

For `CN1CC[C@@]2(C)c3cc(OC(=O)Nc4cccc(Cl)c4)ccc3N(C)[C@@H]12`, which IC50 [1] is on record?
Its IC50 is 38.7 nM.

What about the IC50 [2] of the same molecule?
The IC50 was 105 nM.

And the Ratio IC50 [3]?
Its Ratio IC50 is 3.

Which results are given for `CN1CC[C@@]2(C)c3cc(OC(=O)Nc4cccc5ccccc45)ccc3N(C)[C@@H]12`?
IC50 [1]: 4.2 nM; IC50 [2]: 14.1 nM; Ratio IC50 [3]: 3

Which IC50 [1] does the source give for `CN1CC[C@@]2(C)c3cc(OC(=O)Nc4ccccc4)ccc3N(C)[C@@H]12` [PHENSERINE] here?
The IC50 was 11.9 nM.

And the IC50 [2]?
Its IC50 is 104 nM.

What about the Ratio IC50 [3] of the same molecule?
Its Ratio IC50 is 10.

Which IC50 [1] does the source give for `CN1CC[C@@]2(C)c3cc(OC(=O)Nc4ccccc4Cl)ccc3N(C)[C@@H]12` here?
Its IC50 is 264 nM.

What about the IC50 [2] of the same molecule?
The IC50 was 88.7 nM.

What about the Ratio IC50 [4] of the same molecule?
Its Ratio IC50 is 3.

`CN1CC[C@@]2(C)c3cc(OC(=O)Nc4ccc(Cl)cc4)ccc3N(C)[C@@H]12` was tested. Which IC50 [1] did it give?
The IC50 was 914 nM.

And the IC50 [2]?
The IC50 was 61.3 nM.

And the Ratio IC50 [4]?
Its Ratio IC50 is 15.

For `Cc1ccc(NC(=O)Oc2ccc3c(c2)[C@]2(C)CCN(C)[C@@H]2N3C)cc1Cl`, which IC50 [1] is on record?
The IC50 was 7.3 nM.

What about the IC50 [2] of the same molecule?
Its IC50 is 8.5 nM.

For `CN1CC[C@@]2(C)c3cc(OC(=O)Nc4cc(Cl)cc(Cl)c4)ccc3N(C)[C@@H]12`, which IC50 [1] is on record?
The IC50 was 113 nM.

What about the IC50 [2] of the same molecule?
Its IC50 is 935 nM.

And the Ratio IC50 [3]?
The Ratio IC50 was 8.
